Data: US11701370B2, “Phosphonium ion channel blockers and methods for use” (Nocion Therapeutics, Inc., priority 2019, dated 2023)
Counter-ions that a name gives are not always drawn.

Key:
NaV1.7 [1] = target: T1, NaV1.7 (Homo sapiens, UniProt Q15858); experiment: Internal block: intracellular inhibition of NaV1.7 current, whole cell patch clamp; type: cell-based; conditions: compound in internal solution; for inhibition at 10 µM: 10 μM test concentration; for inhibition at 3 µM: 3 μM test concentration
T1 construct: expressed in transfected cells; tetracycline-inducible, kept under hygromycin and blasticidin selection
T1 sequence (Q15858 whole entry): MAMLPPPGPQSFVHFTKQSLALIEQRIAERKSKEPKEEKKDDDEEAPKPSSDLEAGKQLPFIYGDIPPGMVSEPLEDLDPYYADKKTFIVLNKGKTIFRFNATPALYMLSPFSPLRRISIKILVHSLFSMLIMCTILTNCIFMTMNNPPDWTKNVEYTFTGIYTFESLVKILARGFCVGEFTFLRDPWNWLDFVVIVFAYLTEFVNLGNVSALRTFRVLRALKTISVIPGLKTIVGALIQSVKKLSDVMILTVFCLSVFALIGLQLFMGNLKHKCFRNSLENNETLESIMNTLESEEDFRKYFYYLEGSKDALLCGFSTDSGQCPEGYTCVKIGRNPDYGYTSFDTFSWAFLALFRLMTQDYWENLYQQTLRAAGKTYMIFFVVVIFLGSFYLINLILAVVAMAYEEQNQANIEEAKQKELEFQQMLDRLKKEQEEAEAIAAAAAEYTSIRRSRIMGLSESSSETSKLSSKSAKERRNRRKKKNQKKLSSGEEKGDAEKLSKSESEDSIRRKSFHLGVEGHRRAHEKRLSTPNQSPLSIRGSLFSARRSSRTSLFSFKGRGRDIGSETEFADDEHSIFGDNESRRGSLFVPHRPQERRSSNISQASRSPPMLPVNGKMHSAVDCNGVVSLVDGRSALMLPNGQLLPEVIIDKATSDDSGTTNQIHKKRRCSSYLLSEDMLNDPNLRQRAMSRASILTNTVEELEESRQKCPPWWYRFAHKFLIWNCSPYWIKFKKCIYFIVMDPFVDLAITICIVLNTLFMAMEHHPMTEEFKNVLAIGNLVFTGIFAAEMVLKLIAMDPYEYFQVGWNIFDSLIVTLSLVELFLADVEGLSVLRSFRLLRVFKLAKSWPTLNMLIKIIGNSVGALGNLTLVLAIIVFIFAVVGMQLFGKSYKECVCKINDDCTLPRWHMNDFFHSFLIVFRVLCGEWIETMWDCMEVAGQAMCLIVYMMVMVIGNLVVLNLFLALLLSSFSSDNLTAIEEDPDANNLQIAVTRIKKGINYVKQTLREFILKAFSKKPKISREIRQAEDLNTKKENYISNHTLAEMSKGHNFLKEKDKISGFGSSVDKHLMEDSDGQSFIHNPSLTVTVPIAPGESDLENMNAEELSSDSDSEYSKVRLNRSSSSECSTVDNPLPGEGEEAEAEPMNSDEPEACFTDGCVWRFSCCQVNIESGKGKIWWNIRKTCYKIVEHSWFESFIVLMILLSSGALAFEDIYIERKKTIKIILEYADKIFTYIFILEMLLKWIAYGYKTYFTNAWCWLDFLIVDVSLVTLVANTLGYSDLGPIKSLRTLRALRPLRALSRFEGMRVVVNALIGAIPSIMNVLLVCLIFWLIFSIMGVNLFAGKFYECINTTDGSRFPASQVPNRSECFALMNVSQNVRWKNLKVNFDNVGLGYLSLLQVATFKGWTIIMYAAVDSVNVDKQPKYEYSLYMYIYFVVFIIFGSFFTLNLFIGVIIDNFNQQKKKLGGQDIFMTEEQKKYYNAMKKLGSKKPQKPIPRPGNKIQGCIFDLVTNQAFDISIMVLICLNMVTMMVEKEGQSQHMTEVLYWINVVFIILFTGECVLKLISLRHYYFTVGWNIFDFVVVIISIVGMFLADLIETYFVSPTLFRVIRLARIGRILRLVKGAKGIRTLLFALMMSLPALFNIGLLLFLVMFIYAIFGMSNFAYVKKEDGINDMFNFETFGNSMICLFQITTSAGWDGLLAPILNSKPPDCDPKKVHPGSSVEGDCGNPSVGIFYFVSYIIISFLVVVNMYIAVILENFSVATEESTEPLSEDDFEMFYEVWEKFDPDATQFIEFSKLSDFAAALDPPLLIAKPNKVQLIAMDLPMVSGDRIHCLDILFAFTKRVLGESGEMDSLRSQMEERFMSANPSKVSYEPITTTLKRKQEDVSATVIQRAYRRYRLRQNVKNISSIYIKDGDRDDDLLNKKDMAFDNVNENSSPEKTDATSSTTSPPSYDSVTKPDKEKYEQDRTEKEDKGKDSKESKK
Method: (§1) NaV1.7 was expressed upon induction with tetracycline. Cells were cultured in DMEM containing 10% dialyzed Fetal Bovine Serum (VWR, Radnor, Pa.), 1% Glutamax (VWR, Radnor, Pa.), 1% Penicillin-Streptomycin (VWR, Radnor, Pa.), 100 mg/L Hygromycin (Thermo Fisher Scientific, Waltham, Mass. and 5 mg/L Blasticidin (Alfa Aesar, Haverhill, Mass.). Cells were grown and maintained at 37° C. in a humidified environment containing 10% CO2 in air. Cells were detached from the culture flask for passage and harvested using 0.05% Trypsin-EDTA (Thermo Fisher Scientific, Waltham, Mass.). To induce NaV1.7, cells were induced with tetracycline (0.1-1 μg/mL, IBI Scientific, Peosta, Iowa) the day before recording and plated onto 24-well plates. Cells were washed with DPBS (VWR, Radnor, Pa.), trypsinized and then triturated five times in 10 mL of growth media to break apart cell aggregates. For one 24-well plate, 2 mL of cell suspension was mixed with 23 mL of fresh growth media and 0.1-1 μg/mL tetracycline added. 1 ml of mixed media with cells was then added to each well of a 24-well plate, with a 12 mm coverslip already placed in the bottom of the well. Cells were then incubated in 37° C. and 10% CO2 overnight.
(§2) The intracellular solution contained the following (in mM) CsCl 135, NaCl 10, EGTA 10, HEPES 10, MgCl22, adjusted to pH 7.2 with CsOH. The external solution was a normal Ringer solution containing (in mM) NaCl 155, HEPES 10, glucose 10, KCl 3.5, CaCl2 1.5, MgCl2 1 adjusted to pH 7.4 with NaOH. CsCl is from Alfa Aesar, Haverhill, Mass. All other chemicals are from Sigma-Aldrich, St. Louis, Mo. In order to test the degree of internal block by test compounds the compounds were dissolved in internal solution at the indicated test concentration. […] In order to test the degree of external block by test compounds the compounds were dissolved in external solution at the indicated test concentration.
(§3) 18-24 hours after cells were induced with tetracycline, coverslips were placed into a chamber filled with Normal Ringer solution at room temperature and the chamber placed on a microscope. Pipettes were pulled from borosilicate glass on a P97 puller (Sutter Instrument, Novato, Calif.) and polished with a MF-830 Microforge (Narishige International USA, Inc, Amityville, N.Y.) to have a resistance of 1.5-2.5 MΩ when filled with CsCl internal solution at room temperature. Healthy cells (those that are round and translucent with no visible blemishes) were chosen for seal formation. A seal was formed between the pipette and the cell, and a brief pulse of suction was used to “break in” and establish the whole-cell configuration. The membrane potential was held at −100 mV before the voltage protocol began. Only cells with series resistance between 1.5-5 MΩ were retained for analysis. The voltage protocol was as follows: Cells were held at −100 mV for 12 ms followed by a hyperpolarizing step to −105 mV for 12 ms to monitor the leak. Cells were then stepped back to −100 mV for 40 ms. Cells were then depolarized to −20 mV for 10 ms and then returned to −100 mV for 26 ms (FIG. 1).
(§4) Once the recording was started, the voltage protocol was run at 30 second intervals for 5 minutes to get a stable baseline. This was followed by four 30-second periods of 5 Hz stimulation of the same voltage protocol separated by 1 minute of rest which was then followed by 0.33 Hz stimulation after the last train. Currents were recorded using PatchMaster software with Heka EPC10 (HEKA Electronics, Lambrecht, Germany). Only cells with inward current amplitudes at −20 mV between 400 pA and 4 nA were accepted. In addition, cells having leak currents greater than 10% of their current amplitudes were discarded.
(§5) The data was plotted using the Patchmaster software (HEKA Electronics, Lambrecht, Germany) and analyzed by plotting the minimum current during the voltage step to −20 mV (peak inward current) as a function of time. […]

[2] = PAMPA membrane permeability assay (artificial lipid membrane, passive diffusion); type: in vitro ADME; conditions: pH 7.4 buffer, GIT lipid, 4 hours incubation
Method: The PAMPA assay (pION, Inc., Woburn Mass.) was used to determine the ability of compounds of the invention to cross an artificial lipid membrane by passive diffusion. Test compounds were dissolved in DMSO (10 mM) and diluted 200-fold in buffer (pION Inc., pH 7.4) to provide 50 uM stock solutions. Buffer (150 μL) was added to a UV blank plate and stock solutions (150 μL) were transferred to a UV reference plate. The blank and reference spectrum were read using a spectrophotometer. Stock solutions (200 μL) were added to the donor plate of the PAMPA sandwich plate and an accept plate painted with GIT lipid (pION Inc, 5 μL) was placed on top. Buffer (200 μL) was added to the acceptor plate and the PAMPA sandwich plate was incubated for 4 hours. Aliquots (150 μL) from the acceptor plate were added to a UV plate and read as acceptor spectrum. Aliquots (150 μL) of the donor solutions were added to a UV analysis plate and read as donor spectrum. The permeability coefficient of test compounds was calculated using PAMPA Explorer™ software (version 3.5.0.4) based on the AUC of the reference plate, the donor plate, and the acceptor plate.
The PAMPA permeability results (10^−6 cm/s) of representative compounds are reported as “+” (<0.1 10^−6 cm/s), “++” (0.1-2.0 10^−6 cm/s), “+++” (2.0-10.010^−6 cm/s) or “++++” (>10.0 10^−6 cm/s).

NaV1.7 [3] = target: T1, NaV1.7; experiment: External block: extracellular inhibition of NaV1.7 current, whole cell patch clamp; type: cell-based; conditions: compound in external solution; for inhibition at 10 µM: 10 μM test concentration; for inhibition at 3 µM: 3 μM test concentration
Method: as §1, §2, §3
as §4, with “This is” for “This was”, “by” for “by four 30-second periods of”, “protocol run until the end” for “protocol separated by 1 minute”, “of experiment. […] The test compound is added for 5 minutes before washing out with normal Ringer's solution.” for “of rest which was then followed by 0.33 Hz stimulation after the last train.”
as §5

Row | inhibition at 10 µM (NaV1.7 [1]) [%] | Papp at 4 h, 50 uM [2] [×10⁻⁶ cm/s] | inhibition at 3 µM (NaV1.7 [1]) [%] | inhibition at 10 µM (NaV1.7 [3]) [%] | inhibition at 3 µM (NaV1.7 [3]) [%] | inhibition at 1000 µM (NaV1.7 [3]; 1,000 μM test concentration) [%] | SMILES
1 | – | < 0.1 | 70 to 90 | 40 to 70 | – | – | CCOC(=O)c1cccc(CC)c1NC(=O)C[P+]1(Cc2ccccc2)CCCCC1 [Compound 19]
2 | – | < 0.1 | 40 to 70 | – | – | – | Cc1cccc(C(=O)OC(C)(C)C)c1NC(=O)C[P+]1(Cc2ccccc2)CCCCC1 [Compound 14]
3 | – | < 0.1 | > 90 | – | < 40 | – | CCOC(=O)c1cccc(OCC)c1NC(=O)C[P+]1(Cc2ccccc2)CCCCC1 [Compound 20]
4 | > 95 | 0.1 to 2 | – | 40 to 70 | – | – | Cc1cccc(C)c1NC(=O)C[P+]1(Cc2ccccc2)CCCCC1.[Br-] [Compound 4, 1-benzyl-1-(2-((2,6-dimethylphenyl)amino)-2-oxoethyl) phosphinan-1-ium bromide]
5 | > 95 | < 0.1 | – | 40 to 70 | – | – | Cc1cccc(C)c1NC(=O)C[P+]1(Cc2ccccc2)CCCCCC1 [Compound 3, 1-benzyl-1-(2-((2,6-dimethylphenyl)amino)-2-oxoethyl) phosphepan-1-ium bromide]
6 | – | < 0.1 | 70 to 90 | – | < 40 | – | CCOC(=O)c1cccc(F)c1NC(=O)C[P+]1(Cc2ccccc2)CCCCC1 [Compound 15]
7 | – | – | 70 to 90 | – | – | – | COC(=O)c1cccc(C)c1NC(=O)C[P+]1(Cc2ccccc2)CCCCC1 [Compound 16]
8 | – | < 0.1 | > 90 | – | 40 to 70 | – | CCOC(=O)c1cccc(C)c1NC(=O)C[P+]1(Cc2ccccc2)CCCCC1 [Compound 13]
9 | – | > 10 | > 90 | – | 40 to 70 | – | CCOC(=O)c1cccc(Cl)c1NC(=O)C[P+]1(Cc2ccccc2)CCCCC1 [Compound 17]

Further lines, the compound ahead of its results:

Row | SMILES | inhibition at 10 µM (NaV1.7 [1]) [%] | Papp at 4 h, 50 uM [2] [×10⁻⁶ cm/s] | inhibition at 3 µM (NaV1.7 [1]) [%] | inhibition at 10 µM (NaV1.7 [3]) [%] | inhibition at 3 µM (NaV1.7 [3]) [%] | inhibition at 1000 µM (NaV1.7 [3]; 1,000 μM test concentration) [%]
10 | CC[P+](CC)(CC(=O)Nc1c(C)cccc1C)CC(=O)Nc1c(C)cccc1C [Compound 6, bis (2-((2,6-dimethylphenyl)amino)-2-oxoethyl) diethyl phosphonium acetate] | 70 to 95 | < 0.1 | – | – | – | –
11 | CCC(C(=O)Nc1c(C)cccc1C)[P+](CC)(CC)CC (centres unmarked) [Compound 2, (1-((2,6-dimethylphenyl)amino)-1-oxobutan-2-yl) triethylphosphonium carbonate] | 40 to 70 | > 10 | – | – | – | –
12 | COC(=O)c1cccc(C)c1NC(=O)C[P+](c1ccccc1)(c1ccccc1)c1ccccc1 [Compound 23] | – | < 0.1 | < 40 | – | – | –
13 | Cc1cccc(C)c1NC(=O)C[P+]1(Cc2ccccc2)CCCC1 [Compound 5, 1-benzyl-1-(2-((2,6-dimethylphenyl)amino)-2-oxoethyl) phospholan-1-ium bromide] | 70 to 95 | 0.1 to 2 | – | < 40 | – | –
14 | CCC(C(=O)Nc1c(C)cccc1C(=O)OC)[P+]1(Cc2ccccc2)CCCCC1 (centres unmarked) [Compound 11] | – | < 0.1 | 70 to 90 | – | – | –
15 | CCC(C(=O)Nc1c(C#N)cccc1C(=O)OC)[P+]1(Cc2ccccc2)CCCCC1 (centres unmarked) [Compound 12] | – | – | 70 to 90 | – | – | –
16 | CCC(C(=O)Nc1c(C)cccc1C)[P+](c1ccccc1)(c1ccccc1)c1ccccc1 (centres unmarked) [Compound 9, (1-((2,6-dimethylphenyl)amino)-1-oxobutan-2-yl) triphenylphosphonium formate] | > 95 | 2 to 10 | – | – | – | –
17 | CCC(C(=O)Nc1c(C)cccc1C)[P+]1(Cc2ccccc2)CCCCC1 (centres unmarked) [Compound 10, 1-benzyl-1-(1-((2,6-dimethylphenyl)amino)-1-oxobutan-2-yl)phosphinan-1-ium formate] | > 95 | < 0.1 | – | – | 40 to 70 | –
18 | Cc1cccc(C)c1NC(=O)C[P+](c1ccccc1)(c1ccccc1)c1ccccc1.O=C[O-] [Compound 8, (2-((2,6-dimethylphenyl)amino)-2-oxoethyl) triphenylphosphonium formate] | > 95 | < 0.1 | – | – | 40 to 70 | –
19 | CCCC[P+](CCCC)(CCCC)CC(=O)Nc1c(C)cccc1C.[Br-] [Compound 7, tri-n-butyl (2-((2,6-dimethylphenyl)amino)-2-oxoethyl) phosphonium bromide] | > 95 | 2 to 10 | – | – | – | –
20 | CC[P+](CC)(CC)CC(=O)Nc1c(C)cccc1C(=O)OC.[Br-] [Compound 21] | – | < 0.1 | < 40 | – | – | –
21 | CCCC[P+](CCCC)(CCCC)CC(=O)Nc1c(C)cccc1C(=O)OC.[Br-] [Compound 22] | – | < 0.1 | 70 to 90 | – | – | –
22 | CC[P+](CC)(CC)CC(=O)Nc1c(C)cccc1C [Compound 1, (2-((2,6-dimethylphenyl)amino)-2-oxoethyl) triethylphosphonium bromide] | 70 to 95 | < 0.1 | – | – | – | < 40
